Laboratory results reported in patent US20080027006A1 (priority 2004, published 2008).
Converted amounts (≈) assume the structure as drawn.

Tests used:
[1] = type: physicochemical; conditions: pH 7
[2] = pH 7
[3] = physchem; conditions: pH 7

Structure (SMILES)	[θ]222, Benign [1]	also measured
CC[C@H](C)[C@H](NC(=O)[C@H](C)NC(=O)CNC(=O)[C@H](Cc1ccccc1)NC(=O)[C@H](CC(N)=O)NC(=O)[C@H](CO)NC(=O)[C@H](CO)NC(=O)[C@H](CC(C)C)NC(=O)[C@H](CCC(N)=O)NC(=O)[C@H](CCCCN)NC(=O)[C@@H](NC(=O)[C@H](CC(C)C)NC(=O)[C@@H](NC(=O)[C@H](CC(N)=O)NC(=O)[C@H](CC(C)C)NC(=O)[C@H](C)NC(=O)[C@H](CCC(N)=O)NC(=O)[C@H](C)NC(=O)[C@H](CC(N)=O)NC(=O)[C@H](CCC(N)=O)NC(=O)[C@H](CC(N)=O)NC(=O)[C@@H](NC(=O)[C@@H](NC(=O)[C@H](CC(=O)O)NC(=O)[C@H](CCC(N)=O)NC(=O)[C@H](CC(C)C)NC(=O)[C@H](CCCCN)NC(=O)CNC(=O)[C@H](CC(C)C)NC(=O)[C@H](C)NC(=O)[C@@H](NC(=O)[C@H](CO)NC(=O)[C@@H](NC(C)=O)[C@@H](C)O)[C@@H](C)O)C(C)C)C(C)C)[C@@H](C)O)C(C)C)C(=O)N[C@@H](CO)C(=O)N[C@@H](CO)C(N)=O [HR-N11]	−3,200 degrees · cm^2 · dmol^−1	–
CC[C@H](C)[C@H](NC(=O)CNC(=O)[C@H](CC(N)=O)NC(=O)[C@H](Cc1ccccc1)NC(C)=O)C(=O)NCC(=O)N[C@H](C(=O)N[C@H](C(=O)N[C@@H](CCC(N)=O)C(=O)N[C@@H](CC(N)=O)C(=O)N[C@H](C(=O)N[C@@H](CC(C)C)C(=O)N[C@@H](Cc1ccc(O)cc1)C(=O)N[C@@H](CCC(=O)O)C(=O)N[C@@H](CC(N)=O)C(=O)N[C@@H](CCC(N)=O)C(=O)N[C@@H](CCCCN)C(=O)N[C@@H](CCC(N)=O)C(=O)N[C@H](C(=O)N[C@@H](C)C(=O)N[C@@H](CC(N)=O)C(=O)N[C@@H](CCC(N)=O)C(=O)N[C@@H](Cc1ccccc1)C(=O)N[C@@H](CC(N)=O)C(=O)N[C@@H](CCCCN)C(=O)N[C@@H](C)C(=O)N[C@H](C(=O)N[C@@H](CO)C(=O)N[C@@H](CCC(N)=O)C(=O)N[C@H](C(=O)N[C@@H](CCC(N)=O)C(=O)N[C@@H](CCC(=O)O)C(=O)N[C@@H](CO)C(=O)N[C@@H](CC(C)C)C(=O)N[C@H](C(=O)N[C@H](C(N)=O)[C@@H](C)O)[C@@H](C)O)[C@@H](C)CC)[C@@H](C)CC)[C@@H](C)CC)C(C)C)[C@@H](C)O)C(C)C [HR-N6]	−3,300 degrees · cm^2 · dmol^−1	–
CC[C@H](C)[C@H](NC(C)=O)C(=O)N[C@@H](CCC(N)=O)C(=O)N[C@@H](CCC(=O)O)C(=O)N[C@@H](CO)C(=O)N[C@@H](CC(C)C)C(=O)N[C@H](C(=O)N[C@H](C(=O)N[C@H](C(=O)N[C@@H](CO)C(=O)N[C@H](C(=O)N[C@@H](C)C(=O)N[C@@H](CC(C)C)C(=O)NCC(=O)N[C@@H](CCCCN)C(=O)N[C@@H](CC(C)C)C(=O)N[C@@H](CCC(N)=O)C(=O)N[C@@H](CC(=O)O)C(=O)N[C@H](C(=O)N[C@H](C(=O)N[C@@H](CC(N)=O)C(=O)N[C@@H](CCC(N)=O)C(=O)N[C@@H](CC(N)=O)C(=O)N[C@@H](C)C(=O)N[C@@H](CCC(N)=O)C(=O)N[C@@H](C)C(=O)N[C@@H](CC(C)C)C(=O)N[C@@H](CC(N)=O)C(=O)N[C@H](C(=O)N[C@@H](CC(C)C)C(=O)N[C@H](C(=O)N[C@@H](CCCCN)C(=O)N[C@@H](CCC(N)=O)C(=O)N[C@@H](CC(C)C)C(=O)N[C@@H](CO)C(=O)N[C@@H](CO)C(N)=O)C(C)C)[C@@H](C)O)C(C)C)C(C)C)[C@@H](C)O)[C@@H](C)O)[C@@H](C)O)[C@@H](C)O [HR-N10]	−3,600 degrees · cm^2 · dmol^−1	–
CC[C@H](C)[C@H](NC(=O)[C@H](C)NC(=O)[C@H](CCCCN)NC(=O)[C@H](CC(N)=O)NC(=O)[C@H](Cc1ccccc1)NC(C)=O)C(=O)N[C@@H](CO)C(=O)N[C@@H](CCC(N)=O)C(=O)N[C@H](C(=O)N[C@@H](CCC(N)=O)C(=O)N[C@@H](CCC(=O)O)C(=O)N[C@@H](CO)C(=O)N[C@@H](CC(C)C)C(=O)N[C@H](C(=O)N[C@H](C(=O)N[C@H](C(=O)N[C@@H](CO)C(=O)N[C@H](C(=O)N[C@@H](C)C(=O)N[C@@H](CC(C)C)C(=O)NCC(=O)N[C@@H](CCCCN)C(=O)N[C@@H](CC(C)C)C(=O)N[C@@H](CCC(N)=O)C(=O)N[C@@H](CC(=O)O)C(=O)N[C@H](C(=O)N[C@H](C(=O)N[C@@H](CC(N)=O)C(=O)N[C@@H](CCC(N)=O)C(=O)N[C@@H](CC(N)=O)C(=O)N[C@@H](C)C(=O)N[C@@H](CCC(N)=O)C(=O)N[C@@H](C)C(=O)N[C@@H](CC(C)C)C(=O)N[C@@H](CC(N)=O)C(=O)N[C@H](C(N)=O)[C@@H](C)O)C(C)C)C(C)C)[C@@H](C)O)[C@@H](C)O)[C@@H](C)O)[C@@H](C)O)[C@@H](C)CC [HR-N9]	−2,800 degrees · cm^2 · dmol^−1	–
CC[C@H](C)[C@H](NC(=O)[C@H](C)NC(=O)[C@H](CCCCN)NC(=O)[C@H](CC(N)=O)NC(=O)[C@H](Cc1ccccc1)NC(=O)[C@H](CCC(N)=O)NC(=O)[C@H](CC(N)=O)NC(=O)[C@H](C)NC(=O)[C@@H](NC(=O)[C@H](CCC(N)=O)NC(=O)[C@H](CCCCN)NC(=O)[C@H](CCC(N)=O)NC(=O)[C@H](CC(N)=O)NC(=O)[C@H](CCC(=O)O)NC(=O)[C@H](Cc1ccc(O)cc1)NC(=O)[C@H](CC(C)C)NC(=O)[C@@H](NC(=O)[C@H](CC(N)=O)NC(=O)[C@H](CCC(N)=O)NC(C)=O)C(C)C)[C@@H](C)CC)C(=O)N[C@@H](CO)C(=O)N[C@@H](CCC(N)=O)C(=O)N[C@H](C(=O)N[C@@H](CCC(N)=O)C(=O)N[C@@H](CCC(=O)O)C(=O)N[C@@H](CO)C(=O)N[C@@H](CC(C)C)C(=O)N[C@H](C(=O)N[C@H](C(=O)N[C@H](C(=O)N[C@@H](CO)C(=O)N[C@H](C(=O)N[C@@H](C)C(=O)N[C@@H](CC(C)C)C(=O)NCC(=O)N[C@@H](CCCCN)C(N)=O)[C@@H](C)O)[C@@H](C)O)[C@@H](C)O)[C@@H](C)O)[C@@H](C)CC [HR-N7]	−2,800 degrees · cm^2 · dmol^−1	–
CC[C@H](C)[C@H](NC(=O)[C@H](CCC(N)=O)NC(=O)[C@H](CO)NC(=O)[C@@H](NC(=O)[C@H](C)NC(=O)[C@H](CCCCN)NC(=O)[C@H](CC(N)=O)NC(=O)[C@H](Cc1ccccc1)NC(=O)[C@H](CCC(N)=O)NC(=O)[C@H](CC(N)=O)NC(=O)[C@H](C)NC(=O)[C@@H](NC(=O)[C@H](CCC(N)=O)NC(=O)[C@H](CCCCN)NC(=O)[C@H](CCC(N)=O)NC(=O)[C@H](CC(N)=O)NC(=O)[C@H](CCC(=O)O)NC(=O)[C@H](Cc1ccc(O)cc1)NC(=O)[C@H](CC(C)C)NC(=O)[C@@H](NC(=O)[C@H](CC(N)=O)NC(=O)[C@H](CCC(N)=O)NC(=O)[C@@H](NC(=O)[C@@H](NC(=O)CNC(=O)[C@@H](NC(=O)CNC(=O)[C@H](CC(N)=O)NC(=O)[C@H](Cc1ccccc1)NC(=O)[C@H](CCCNC(=N)N)NC(=O)[C@H](Cc1ccc(O)cc1)NC(=O)[C@H](C)NC(=O)[C@H](CCSC)NC(=O)[C@H](CCC(N)=O)NC(=O)[C@H](CCSC)NC(C)=O)[C@@H](C)CC)C(C)C)[C@@H](C)O)C(C)C)[C@@H](C)CC)[C@@H](C)CC)C(N)=O [HR-N5]	−4,300 degrees · cm^2 · dmol^−1	solubility (in words) [2]: largely insoluble; solubility [3]: 15 µM (≈ 61.5 µg/mL); No. Helical Residues, 50% TFE [1]: 24; [θ]222, 50% TFE [1]: −24,200 degrees · cm^2 · dmol^−1
CC[C@H](C)[C@H](NC(=O)[C@H](C)NC(=O)[C@H](CCCCN)NC(=O)[C@H](CC(N)=O)NC(=O)[C@H](Cc1ccccc1)NC(=O)[C@H](CCC(N)=O)NC(=O)[C@H](CC(N)=O)NC(=O)[C@H](C)NC(=O)[C@@H](NC(=O)[C@H](CCC(N)=O)NC(=O)[C@H](CCCCN)NC(=O)[C@H](CCC(N)=O)NC(C)=O)[C@@H](C)CC)C(=O)N[C@@H](CO)C(=O)N[C@@H](CCC(N)=O)C(=O)N[C@H](C(=O)N[C@@H](CCC(N)=O)C(=O)N[C@@H](CCC(=O)O)C(=O)N[C@@H](CO)C(=O)N[C@@H](CC(C)C)C(=O)N[C@H](C(=O)N[C@H](C(=O)N[C@H](C(=O)N[C@@H](CO)C(=O)N[C@H](C(=O)N[C@@H](C)C(=O)N[C@@H](CC(C)C)C(=O)NCC(=O)N[C@@H](CCCCN)C(=O)N[C@@H](CC(C)C)C(=O)N[C@@H](CCC(N)=O)C(=O)N[C@@H](CC(=O)O)C(=O)N[C@H](C(=O)N[C@H](C(=O)N[C@@H](CC(N)=O)C(=O)N[C@@H](CCC(N)=O)C(N)=O)C(C)C)C(C)C)[C@@H](C)O)[C@@H](C)O)[C@@H](C)O)[C@@H](C)O)[C@@H](C)CC [HR-N8]	−2,500 degrees · cm^2 · dmol^−1	–
